Literature values in patent US20240065995A1, “INJECTABLE METHODS TO TREAT DEFICIENCIES IN GLUTATHIONE METABOLISM AND HOMOCYSTINURIA” (priority 2022, published 2024).

Details: glutathione in the bloodstream; background statement

half-life in the bloodstream: under 2 minutes
SMILES: N[C@@H](CCC(=O)N[C@@H](CS)C(=O)NCC(=O)O)C(=O)O [Glutathione]
